Source: patent US20220128542A1, “TREATMENT EFFICIENCY EVALUATION” (TX MEDIC AB, priority 2019, published 2022)

System: brain of rats subjected to closed-head diffuse severe TBI (sTBI)
Experiment: HPLC of energy metabolites, antioxidants and oxidative/nitrosative stress biomarkers in brain, dose study after sTBI (Example 3)
Type: in vivo, rat
Conditions: for NAD^+/NADH ratio in brain homogenate: calculated, adimensional, rats 7 days post-sTBI
Description: Male Wistar rats (n=160) of 300-350 g body weight were used in this study.
1994, 80: 291-300. This model causes diffuse axonal injury and it is able to reproduce the physical and mechanical characteristics of the diffuse TBI in humans.
Rats were placed prone on a bed of specific polyurethane foam inserted in a special container. This foam dissipates the major part of the potential energy (deriving from the mechanical forces) and prevents any rebound of the animal after the impact that could produce spinal damages.
These time points are coincident with the worst biochemical derangement (2 days) or, in the case of a mildly injured brain, with a full metabolic recovery (7 days).
The drug treatment consisted in a subcutaneous injection of 0.5 ml of LMW-DS (Tikomed) and administered at 3 different concentrations (1, 5 and 15 mg/kg body weight), according to the schematic protocol described below.
Sham-operated animals underwent the same procedure of anesthesia but TBI and were used as the control group.
Rats used in this study were divided into 4 groups in order to carry out a study on the efficacy of three different concentrations of LMW-DS at two different times post TBI. As subsequently specified, in each group there were animals subjected to a specific treatment for metabolic analyses and other animals intended to histo-morphological studies, according to the procedures described below.
Rats subjected to sTBI and receiving a single administration of LMW-DS after 30 minutes post-TBI, with sacrifice at 2 days post-TBI. Animals were divided in the following subgroups:
Rats subjected to sTBI and receiving a single administration of LMW-DS after 30 minutes post-TBI, with sacrifice at 7 days post-TBI. Animals were divided in the following subgroups:
Rats (n=12) subjected to sTBI and receiving repeated administrations of the maximal dose of LMW-DS (15 mg/kg b.w.) after 30 minutes, 3 days and 5 days post-TBI, with sacrifice at 7 days post-TBI. Four additional rats were used for the histo-morphological studies. Total rats in this group: n=16
To minimize metabolite loss, an in vivo craniectomy was performed in all animals during anesthesia. The rat skull was carefully removed, the brain was exposed, sharply cut along the sagittal fissure and the two hemispheres were separated. The hemispheres dedicated to biochemical analyses were freeze-clamped by aluminum tongues pre-cooled in liquid nitrogen and then immersed in liquid nitrogen. The freeze-clamping procedure was introduced to accelerate freezing of the tissue, thus minimizing potential metabolite loss.
Tissue homogenization for metabolite analyses was effected as described below. After the wet weight (w.w.) determination, the frozen hemispheres were placed into 7 ml of ice-cold, nitrogen-saturated, precipitating solution (1:10 w/v) composed by CH3CN+10 mM KH2PO4, pH 7.40, (3:1; v:v), and the homogenization was performed using an Ultra-Turrax homogenizer set at 24,000 rpm/min (Janke & Kunkel, Staufen, Germany). After centrifugation at 20,690×g, for 10 min at 4° C., the clear supernatants were saved, pellets were supplemented with an aliquot of 10 mM KH2PO4 and homogenized again as described above and saved overnight at −20° C. in order to obtain a complete recovery of aqueous phase from tissue. A second centrifugation was performed (20,690×g, for 10 min at 4° C.) and supernatants combined with those previously obtained were extracted by vigorous agitation with a double volume of HPLC-grade CHCl3 and centrifuged as above.

[1] = 1 mg/kg b.w. single, 30 min after trauma, 2 days post-TBI
[2] = 1 mg/kg b.w. single, 30 min after trauma, 2 days post-sTBI
[3] = 5 mg/kg b.w. single, 30 min after trauma, 2 days post-TBI
[4] = 5 mg/kg b.w. single, 30 min after trauma, 2 days post-sTBI
[5] = 15 mg/kg b.w. single, 30 min after trauma, 2 days post-sTBI
[6] = rats 2 days post-TBI, single 1 mg/kg b.w. 30 min after trauma
[7] = rats 2 days post-TBI, single 5 mg/kg b.w. 30 min after trauma
[8] = rats 2 days post-TBI, single 15 mg/kg b.w. 30 min after trauma

Substance: sodium salt of dextran sulfate [LMW-DS]
- NO2 brain concentration [1]: 158.36 ± 19.08 nmol/g w.w.
- acetyl-CoA brain concentration [1]: 27.74 ± 3.23 nmol/g w.w.
- ascorbic acid brain concentration [1]: 2567.35 ± 147.76 nmol/g w.w.
- AMP brain concentration [2]: 62.04 ± 7.46 nmol/g w.w.
- CMP brain concentration [2]: 29.39 ± 6.00 nmol/g w.w.
- CTP brain concentration [2]: 33.01 ± 7.63 nmol/g w.w.
- GDP glucose brain concentration [2]: 65.66 ± 41.61 nmol/g w.w.
- GMP brain concentration [2]: 205.06 ± 25.74 nmol/g w.w.
- IMP brain concentration [2]: 45.97 ± 8.65 nmol/g w.w.
- NAD^+/NADH ratio (adimensional) [2]: 33.91 ± 9.32
- UDP-Gal brain concentration [2]: 118.50 ± 9.89 nmol/g w.w.
- UDP-GalNac brain concentration [2]: 21.24 ± 3.13 nmol/g w.w.
- UDP-Glc brain concentration [2]: 45.14 ± 6.68 nmol/g w.w.
- UDP-GlcNac brain concentration [2]: 96.62 ± 8.80 nmol/g w.w.
- UMP brain concentration [2]: 148.04 ± 20.45 nmol/g w.w.
- UTP brain concentration [2]: 104.07 ± 16.34 nmol/g w.w.
- GSH brain concentration [3]: 2067.79 ± 301.54 nmol/g w.w.
- NO2 brain concentration [3]: 218.12 ± 26.28 nmol/g w.w.
- NO3 brain concentration [3]: 148.41 ± 32.30 nmol/g w.w.
- acetyl-CoA brain concentration [3]: 34.85 ± 4.05 nmol/g w.w.
- ascorbic acid brain concentration [3]: 2626.68 ± 151.17 nmol/g w.w.
- AMP brain concentration [4]: 67.03 ± 11.85 nmol/g w.w.
- CTP brain concentration [4]: 37.72 ± 7.63 nmol/g w.w.
- GDP brain concentration [4]: 183.27 ± 25.32 nmol/g w.w.
- GDP glucose brain concentration [4]: 83.81 ± 37.35 nmol/g w.w.
- NAD^+ brain concentration [4]: 376.85 ± 64.15 nmol/g w.w.
- NAD^+/NADH ratio (adimensional) [4]: 36.61 ± 6.09
- UDP-GalNac brain concentration [4]: 20.75 ± 3.06 nmol/g w.w.
- UTP brain concentration [4]: 142.82 ± 22.43 nmol/g w.w.
- GSH brain concentration (15 mg/kg b.w. single, 30 min after trauma, 2 days post-TBI): 2418.94 ± 352.75 nmol/g w.w.
- ADP-ribose brain concentration [5]: 23.06 ± 4.63 nmol/g w.w.
- AMP brain concentration [5]: 66.26 ± 10.74 nmol/g w.w.
- CTP brain concentration [5]: 37.53 ± 7.59 nmol/g w.w.
- GDP brain concentration [5]: 194.61 ± 26.88 nmol/g w.w.
- GDP glucose brain concentration [5]: 84.24 ± 37.54 nmol/g w.w.
- GMP brain concentration [5]: 178.88 ± 22.46 nmol/g w.w.
- NADPH brain concentration [5]: 8.93 ± 0.74 nmol/g w.w.
- NADP^+ brain concentration [5]: 17.75 ± 4.06 nmol/g w.w.
- NAD^+ brain concentration [5]: 475.32 ±80.91 nmol/g w.w.
- NAD^+/NADH ratio (adimensional) [5]: 44.40 ± 7.67
- UDP brain concentration [5]: 80.00 ± 8.20 nmol/g w.w.
- UDP-GalNac brain concentration [5]: 22.37 ± 3.30 nmol/g w.w.
- UDP-Glc brain concentration [5]: 43.41 ± 6.43 nmol/g w.w.
- UDP-GlcNac brain concentration [5]: 108.74 ± 9.90 nmol/g w.w.
- UMP brain concentration [5]: 147.53 ± 20.38 nmol/g w.w.
- UTP brain concentration [5]: 108.21 ± 16.99 nmol/g w.w.
- concentrations of ascorbic acid and reduced glutathione (GSH) (2 days post impact): significantly ameliorated
- NAA concentration (FIG. 7) (2 days post impact, 5 or 15 mg/kg b.w.): significantly higher than values found in sTBI rats
- concentrations of UTP and ADP (2 days post-sTBI): No effects
- nicotinic coenzyme pool (2 days post-sTBI, 15 mg/kg b.w.): significant protection
- Acetyl-CoA (2 days post-sTBI, 5 or 15 mg/kg b.w.): partial rescue
- high energy phosphates (ATP, GTP, and CTP) (2 days post-sTBI, all three dosages (1, 5, 15 mg/kg)): Significantly higher values
- ATP level, decrease versus value of controls (7 days post impact, untreated sTBI 35% decrease): 16%
- NAA concentration, decrease versus value of controls (7 days post impact, untreated sTBI 48% lower): 16%
- NAD+ level and NAD/NADH ratio (7 days post injury, single and repeat 15 mg/kg b.w.): normalize
- NAA (FIG. 11) (7 days post sTBI, increasing single doses or repeat maximal dose): dose dependent increase
- CoA-SH and Acetyl-CoA (7 days post-sTBI, 5 or 15 mg/kg b.w. (single and repeat)): Remarkable positive effects
- ATP (FIG. 8) (7 days post-sTBI, any dose tested): significant increases
- NAD^+/NADH ratio in brain homogenate (repeated 15 mg/kg b.w.): 37.47 ± 9.46
- NAD^+/NADH ratio in brain homogenate (single 1 mg/kg b.w.): 33.91 ± 9.32
- NAD^+/NADH ratio in brain homogenate (single 5 mg/kg b.w.): 33.90 ± 7.19
- ADENOSINE concentration in brain homogenate [6]: 68.91 ± 16.50 nmol/g w.w.
- CDP choline concentration in brain homogenate [6]: 8.23 ± 1.22 nmol/g w.w.
- CREATININE concentration in brain homogenate [6]: 17.66 ± 3.29 nmol/g w.w.
- CYTIDINE concentration in brain homogenate [6]: 13.79 ± 2.49 nmol/g w.w.
- CYTOSINE concentration in brain homogenate [6]: 13.47 ± 1.65 nmol/g w.w.
- URACIL concentration in brain homogenate [6]: 17.18 ± 3.36 nmol/g w.w.
- CYTOSINE concentration in brain homogenate [7]: 13.65 ± 1.67 nmol/g w.w.
- URACIL concentration in brain homogenate [7]: 17.83 ± 3.48 nmol/g w.w.
- URIDINE concentration in brain homogenate [7]: 117.21 ± 20.64 nmol/g w.w.
- XANTHINE concentration in brain homogenate [7]: 6.71 ± 0.70 nmol/g w.w.
- ADENOSINE concentration in brain homogenate [8]: 53.25 ± 12.75 nmol/g w.w.
- CDP choline concentration in brain homogenate [8]: 7.07 ± 1.05 nmol/g w.w.
- CYTIDINE concentration in brain homogenate [8]: 11.46 ± 2.07 nmol/g w.w.
- CYTOSINE concentration in brain homogenate [8]: 13.57 ± 1.66 nmol/g w.w.
